How the values were obtained:
Test in all cases: Mass spectroscopy proteomics, semi-quantitative binding affinity of serum proteins (plaqueproteome, Table 2)
Conditions in all cases: higher number = stronger affinity
[1] = tested on: High Density cholesterol (Chl Large) plaque particles; design: species or system human
Protocol: (§1) The goal was to isolate plaque particles synthesized in the bio-fluids in a relatively pure form to enable their subsequent use for identification of components that contribute to the plaque formation. In order to isolate cholesterol plaque particles, the plasma or serum samples obtained from atherosclerotic subjects were first centrifuged at 5,000 rpm for 5 min and the supernatants were transferred to new centrifuge tubes. Next, the supernatants were diluted in PBS to make 50% of the serum and used for incubation with cholesterol oligomers/aggregates. Each assay was performed in 1 mL reaction (800 μL of 50% plasma or serum) and 200 μL (30 μg) of the Cholesterol aggregates and the mixtures were incubated at 37° C. for 1 hr After the incubation, the mixture was directly used for sample acquisition using flow cytometer (FACS ARIA II, BD Biosciences, San Jose, Calif.). […] In order to isolate these fractions, three sets of gates were drawn in the acquisition blot to separately sort and isolate High density or high complex cholesterol particles, Low density or low complex cholesterol particles and both High and low density cholesterol particles together.
(§2) For preparing trypsin digested peptide sequences, the isolated plaque particles were centrifuged at 10000 rpm for 5 min and the pellet containing plaque particles was resuspended in 100 μl PBS buffer. Stock solutions of digestion buffer (Ammonium Biocarbonate 50 mM), reducing buffer (DDT 100 mM) and alkylation buffer (lodoaceamide 100 mM) were prepared and stored at −20° C. for up to two months. For trypsin digestion, 100 μl of each plaque particles (2000 of Abeta-42, cholesterol, Tau and alpha-synuclein) were precipitated using cold acetone −80° C. by adding 4X's the volume. The samples were placed on dry ice for 10 min with intermittent vortex. Next, the samples were centrifuged at 4° C. at 10000 G for 10 min. Top layer of acetone was carefully removed from the tube with care not to disturb the plaque particles pellet. The samples were speed-vac for 10 min to ensure all acetone has been boiled away. The plaque particles pellet were reconstituted with 15 μl 8M Urea 100 mM Ammonium bicarbonate stock and 20 μl protease max solution. The protease max solution (Promega, Madison, Wis.) was prepared from stock by adding 60 μl 50 mM Ammonium bicarbonate and used for 3 solution digests (20 μl each). […] The tubes were incubated at 55° C. for 30 minutes. The tubes were then removed and brought to the room temperature followed by addition of 3.2 μl of 1M acrylamide and incubated at room temperature for 30 minutes. To the sample, 63 μL of 50 mM Ammonium bicarbonate was added for a final volume of 98 μl and 2 μl of trypsin (10 μg, Trypsin/Lys C Mix). After mixing the solution with pipet the samples were incubated at 37° C. overnight. After the overnight digest, the tryptic digest were quenched and acidified by adding 10 μl of 50% formic acid/water stock dilution. The samples were centrifuged at 10000 G for 2 minutes and purified using stage tip and used for MS/Mass analysis.
(§3) All MS/MS samples were analyzed using Sequest (Thermo Fisher Scientific, San Jose, Calif., USA; version 1.0). Sequest was set up to search the SUMS_uniprot_Human database (35847 entries) assuming the digestion enzyme strict trypsin. Sequest was searched with a fragment ion mass tolerance of 1.00 Da and a parent ion tolerance of 20 PPM. Propionamide of cysteine was specified in Sequest as a fixed modification. Oxidation of methionine and phospho of serine, threonine and tyrosine were specified in Sequest as variable modifications.
(§4) Scaffold (version Scaffold_4.2.1, Proteome Software Inc., Portland, Oreg.) was used to validate MS/MS based peptide and protein identifications. […] Protein probabilities were assigned by the Protein Prophet algorithm (Nesvizhskii, Al et al 2003).

[2] = tested on: Low density cholesterol (Chl small) plaque particles; design: species or system human
Protocol: as §1, §2, §3, §4

[3] = biological target: T1, Abeta-42 plaque particles (Homo sapiens, UniProt P05067)
T1 construct: Abeta 1-42
Protocol: Next to isolate serum derived Abeta-42 plaque particles, the plasma or serum samples obtained from AD subjects were first centrifuged at 5,000 rpm for 5 min and the supernatants were transferred to new centrifuge tubes. Next, the supernatants were diluted in PBS to make 50% of the serum and plasma samples and used for incubation with Abeta-42 plaque oligomers/aggregates. Each assay was performed in 1 mL reaction (800 μL of 50% plasma or serum) and 200 μL (30 μg) of the Abeta-42 aggregates and the mixtures were incubated at 37° C. for 1 hr. To the mixture Thioflavin S dye (120 μg) was added and the sample was incubated for additional 30 min at 37° C. After the incubation, the mixture was directly used for sample acquisition using flow cytometer (FACS ARIA II, BD Biosciences, San Jose, Calif.). After initial detection of Abeta-42 plaque particles in the acquisition blot, gates were drawn in fluorescent dot blot to separately sort and isolate fluorescently labeled Abeta-42 particles.
as §2, §3
as §4, with “2003). […] Proteins sharing significant peptide evidence were grouped into clusters. Proteins were annotated with GO terms from NCBI (downloaded Jan. 17, 2014).” for “2003).”

[4] = biological target: T2, alpha-synuclein plaque particles (Homo sapiens, UniProt P37840)
T2 construct: 140 amino acids polypeptide
Protocol: To prepare oligomers/aggregates of human alpha-synuclein (140 amino acids polypeptide), 1 mg of the recombinant alpha-synuclein protein was suspended in 1 mL of PBS and the sample was incubated at 37° C. for 2 hrs. After incubation, all the samples were centrifuged for 5 min. at 5000 rpm to remove precipitate, if any, and the supernatant containing oligomers/aggregates were used in vitro plaque particles formation assay. For detecting alpha-synuclein plaque particles Thioflavin S (Ex/Em=430 nm/550 nm) amyloid binding fluorescent dye (10 μg) was used.
Similarly, to isolate alpha-synuclein plaque particles, diluted plasma or serum samples obtained from AD subjects were used for incubation with alpha-synuclein plaque oligomers/aggregates. Each assay was performed in 1 mL reaction (800 μL of 50% plasma or serum) and 200 μL (30 μg) of the alpha-synuclein aggregates and the mixtures were incubated at 37° C. for 1 hr. To the mixture Thioflavin S dye (120 μg) was added and the sample was incubated for additional 30 min at 37° C. After the incubation, the mixture was directly used for sample acquisition using flow cytometer (FACS ARIA II, BD Biosciences, San Jose, Calif.). After initial detection of alpha-synuclein plaque particles, gates were drawn in the acquisition blot to separately sort and isolate fluorescently labeled alpha-synuclein particles.
as §2, §3
Scaffold (version Scaffold_4.2.1, Proteome Software Inc., Portland, Oreg.) was used to validate MS/MS based peptide and protein identifications.

Tau plaque particles = tested on: Tau plaque particles; design: species or system human
Protocol: For Tau-74 (74-102) (Exon 3/Insert 2 domain) preparation, 1 mg of Tau-74 was suspended in 1 mL of PBS and the sample was incubated at 37° C. for 2 hrs. Similarly for preparing Tau-275 (275-305) (Repeat 2 domain) 1 mg of the peptide was suspended in 1 mL of PBS and the sample was incubated at 37° C. for 2 hrs. After incubation, all the samples were centrifuged for 5 min. at 5000 rpm to remove precipitate, if any, and the supernatant containing oligomers/aggregates were used for in vitro amyloid plaque particles formation assay. For detecting Tau plaque particles, Thioflavin S (Ex/Em=430 nm/550 nm) amyloid binding fluorescent dye (10 μg) was used in the assay.
Next, to isolate Tau plaque particles, as performed for Abeta-42 and Abeta-28 plaque particles isolation, diluted serum samples were used for incubation separately with Tau-45, Tau-74 and Tau-275 oligomers/aggregates. Each assay was performed in 1 mL reaction (800 μL of 50% plasma or serum) and 200 μL (30 μg) of each Tau aggregates and the mixtures were incubated at 37° C. for 1 hr. To the each mixture Thioflavin S dye (120 μg) was added and the sample was incubated for additional 30 min at 37° C. After the incubation, each sample was directly used for sample acquisition using flow cytometer (FACS ARIA II, BD Biosciences, San Jose, Calif.). After initial detection of Tau plaque particles, gates were drawn in the acquisition blot to separately sort and isolate fluorescently labeled Tau plaque particles.
as §2, §3

| Substance | Semi-quantitative analysis of proteins binding to different plaque particles: Chl Large [1] | Semi-quantitative analysis of proteins binding to different plaque particles: Chl small [2] | Semi-quantitative analysis of proteins binding to different plaque particles: Abeta-42 [3] | Semi-quantitative analysis of proteins binding to different plaque particles: Synuclein [4] | Semi-quantitative analysis of proteins binding to different plaque particles: Tau (Tau plaque particles) |
| --- | --- | --- | --- | --- | --- |
| Complement C1q subcomponent subunit B | 1 | 0 | 0 | 2 | 2 |
| Complement C1q subcomponent subunit C | 1 | 1 | 0 | 1 | 2 |
| Complement C1s subcomponent | 3 | 1 | 0 | 1 | 2 |
| Complement C3 | 73 | 67 | 63 | 71 | 85 |
| Complement C4-A | 44 | 36 | 28 | 37 | 50 |
| Complement C4-B | 44 | 35 | 32 | 37 | 52 |
| Complement C5 | 5 | 3 | 0 | 4 | 1 |
| Complement component C6 | 1 | 1 | 0 | 3 | 1 |
| Complement component C7 | 4 | 6 | 0 | 1 | 4 |
| Complement component C8 alpha chain | 3 | 2 | 0 | 0 | 0 |
| Complement component C8 beta chain | 1 | 2 | 0 | 0 | 2 |
| Complement component C8 gamma chain | 0 | 1 | 0 | 2 | 2 |
| Complement component C9 | 1 | 1 | 0 | 1 | 0 |
| Complement factor B | 9 | 14 | 12 | 10 | 13 |

Reference: patent publication US9618524B2, “Method, composition, isolation and identification of a plaque particle and related biomarker” (Plaxgen Inc., priority 2012, dated 2017)
